Where two headings read alike, the source gives them in different places.
Legend:
human PRMT6 = target: T1, human PRMT6 (Homo sapiens, UniProt Q96LA8); assay: PRMT6 Biochemical Assay (3H-SAM Flashplate, peptide substrate)
T1 construct: Flag-PRMT6-His; made in house; host or cells: HEK 293F cells (BacMam baculovirus)
Procedure, shortened: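 Methylation of a biotin-tagged H4 (36-50) peptide by ³H-SAM was quantified by streptavidin Flashplate capture and scintillation counts (dpm/cpm). Before SAM/peptide addition, Flag-PRMT6-His was preincubated with compound for 30 min at room temperature in Bicine buffer, pH 7.6.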

human PRMT8 = human PRMT8 (Homo sapiens, UniProt Q9NR22); assay: PRMT8 Biochemical Assay (3H-SAM Flashplate, peptide substrate); details: single experiment or average of multiple experiments
Chain of human PRMT8 (Q9NR22 whole entry, the tested form may be a part): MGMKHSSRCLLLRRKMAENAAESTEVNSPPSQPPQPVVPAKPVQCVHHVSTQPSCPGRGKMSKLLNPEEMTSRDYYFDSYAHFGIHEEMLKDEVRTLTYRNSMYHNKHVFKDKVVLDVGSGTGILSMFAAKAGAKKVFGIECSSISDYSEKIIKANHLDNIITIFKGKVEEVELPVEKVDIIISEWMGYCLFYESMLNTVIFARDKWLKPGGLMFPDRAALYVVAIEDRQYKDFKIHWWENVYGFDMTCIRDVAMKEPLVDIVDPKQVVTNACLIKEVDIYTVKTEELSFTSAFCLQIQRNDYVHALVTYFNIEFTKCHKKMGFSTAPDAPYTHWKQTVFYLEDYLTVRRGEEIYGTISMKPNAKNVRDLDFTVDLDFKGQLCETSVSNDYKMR
Procedure, shortened: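 Methylation of a biotin-tagged histone H4 peptide (residues 31-45) by recombinant PRMT8 was measured as 3H transfer from 3H-SAM, after a 30 min room-temperature compound preincubation in Bicine buffer pH 7.6. Reactions were quenched with unlabelled SAM to 400 uM final, then bound counts were read by streptavidin Flashplate. IC50 came from a Hill fit of % inhibition relative to max and SAH min controls.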

[1] = Biochemical IC50 PRMT6, single experiment or average of multiple experiments
[2] = single experiment or average of multiple experiments, read-out: Biochemical IC50 PRMT6

T1 sequence (Q96LA8 with tags, fused parts or gaps): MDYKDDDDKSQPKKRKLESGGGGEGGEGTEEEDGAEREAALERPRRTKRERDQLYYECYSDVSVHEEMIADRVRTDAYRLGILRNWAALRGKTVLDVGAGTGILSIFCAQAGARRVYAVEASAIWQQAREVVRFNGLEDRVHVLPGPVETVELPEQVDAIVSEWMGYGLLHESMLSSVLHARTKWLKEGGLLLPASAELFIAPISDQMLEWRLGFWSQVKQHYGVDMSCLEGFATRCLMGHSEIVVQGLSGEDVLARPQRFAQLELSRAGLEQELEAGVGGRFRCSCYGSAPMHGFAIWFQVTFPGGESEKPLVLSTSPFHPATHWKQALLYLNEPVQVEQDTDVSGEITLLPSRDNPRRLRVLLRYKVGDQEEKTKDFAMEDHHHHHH

CNCCN(C)Cc1cnn(CCCC(O)CO)c1-c1ccc(F)cc1 (stereo not drawn) [Compound 31]
IC50 (human PRMT6; [1]): 110 nM
IC50 (human PRMT8): 6310 nM

CNCCN(C)Cc1c[nH]nc1-c1ccc(N)cc1 [Compound 33]
IC50 (human PRMT6; [1]): 37.9 nM
IC50 (human PRMT8): 1430 nM

CNCCN(C)Cc1c[nH]nc1-c1ccc(Oc2ccccc2)cc1 [Compound 37]
IC50 (human PRMT6; [1]): 3.29 nM
IC50 (human PRMT8): 57.6 nM

CNCCN(C)Cc1c[nH]nc1-c1ccccc1C(F)(F)F [Compound 38]
IC50 (human PRMT6; [2]): 352 nM
IC50 (human PRMT8): 9900 nM

CCNC(=O)c1cccc(-c2n[nH]cc2CN(C)CCNC)c1 [Compound 43]
IC50 (human PRMT6; [1]): 51.9 nM
IC50 (human PRMT8): 2260 nM

CNCCN(C)Cc1c[nH]nc1-c1ccc(C(=O)c2ccccc2)cc1 [Compound 45]
IC50 (human PRMT6; [2]): 7.54 nM
IC50 (human PRMT8): 308 nM

CNCCN(C)Cc1c[nH]nc1-c1ccccc1-c1ccccc1 [Compound 46]
IC50 (human PRMT6; [2]): 3220 nM
IC50 (human PRMT8): 11900 nM

CNCCN(C)Cc1c[nH]nc1-c1ccc(F)cc1F [Compound 49]
IC50 (human PRMT6; [1]): 39.3 nM
IC50 (human PRMT8): 749 nM

CNCCN(C)Cc1c[nH]nc1-c1cc(F)ccc1F [Compound 50]
IC50 (human PRMT6; [1]): 42.8 nM
IC50 (human PRMT8): 1660 nM

CNCCN(C)Cc1c[nH]nc1-c1ccc(F)c(F)c1 [Compound 51]
IC50 (human PRMT6; [1]): 9.95 nM
IC50 (human PRMT8): 184 nM

CNCCN(C)Cc1c[nH]nc1-c1ccc(OC)c(F)c1 [Compound 52]
IC50 (human PRMT6; [1]): 8.92 nM
IC50 (human PRMT8): 219 nM

CNCCN(C)Cc1c[nH]nc1-c1ccc(OC)cc1OC [Compound 55]
IC50 (human PRMT6; [2]): 87 nM
IC50 (human PRMT8): 3190 nM

CNCCN(C)Cc1c[nH]nc1-c1c(OC)cccc1OC [Compound 56]
IC50 (human PRMT6; [2]): 1900 nM
IC50 (human PRMT8): 34900 nM

CNCCN(C)Cc1c[nH]nc1-c1cccc2ccccc12 [Compound 57]
IC50 (human PRMT6; [1]): 10.3 nM
IC50 (human PRMT8): 196 nM

CNCCN(C)Cc1c[nH]nc1-c1ccc2ccccc2c1 [Compound 58]
IC50 (human PRMT6; [1]): 6.14 nM
IC50 (human PRMT8): 170 nM

CNCCN(C)Cc1cn(CCC(O)CO)nc1-c1ccc(F)cc1 (stereo not drawn) [Compound 59]
IC50 (human PRMT6; [1]): 627 nM
IC50 (human PRMT8): 8860 nM

CCN(CCN)Cc1c[nH]nc1-c1ccc(F)cc1 [Compound 62]
IC50 (human PRMT6; [1]): 7.87 nM
IC50 (human PRMT8): 362 nM

CCCN(CCN)Cc1c[nH]nc1-c1ccc(F)cc1 [Compound 63]
IC50 (human PRMT6; [1]): 1150 nM
IC50 (human PRMT8): 8030 nM

CN(CCN)Cc1cnn(CCO)c1-c1ccc(F)cc1 [Compound 65]
IC50 (human PRMT6; [1]): 423 nM
IC50 (human PRMT8): 8610 nM

CN(CCN)Cc1cn(CCO)nc1-c1ccc(F)cc1 [Compound 66]
IC50 (human PRMT6; [1]): 1040 nM
IC50 (human PRMT8): 8750 nM

CN(CCN)Cc1c[nH]nc1-c1ccc(C#N)cc1 [Compound 68]
IC50 (human PRMT6; [1]): 6.7 nM
IC50 (human PRMT8): 404 nM

CNCCN(C)Cc1cnn(CC(=O)OC)c1-c1ccc(OC(C)C)cc1 [Compound 249]
IC50 (human PRMT6; [1]): 428 nM
IC50 (human PRMT8): 1500 nM

CNCCN(C)Cc1cn(CC(=O)O)nc1-c1ccc(OC(C)C)cc1 [Compound 250]
IC50 (human PRMT6; [1]): 4260 nM
IC50 (human PRMT8): 2540 nM

CNCCN(C)Cc1cn(C2CCCCC2)nc1-c1ccc(OC(C)C)cc1 [Compound 256]
IC50 (human PRMT6; [1]): 921 nM
IC50 (human PRMT8): 2650 nM

Reference: patent publication US9776972B2, “Pyrazole derivatives as arginine methyltransferase inhibitors and uses thereof” (priority 2013, dated 2017)
